Patent publication US20260176254A1, “INHIBITORS OF PROSTATE SPECIFIC MEMBRANE ANTIGEN AND USE THEREOF” (SHANGHAI SINOTAU BIOTECH. CO., LTD, priority 2023, published 2026)

Legend:
LNCaP cells = experiment: Cell uptake assay of 177Lu-labeled compound; assay type: cell-based; settings: for Membrane (%): cell membrane fraction; for Intracellular (%): intracellular fraction
Experimental: LNCaP (ATCC) cells were cultured in RPMI 1640 medium (Gibco) containing 10% fetal bovine serum (FBS) (Gibco), in 5% carbon dioxide (CO2), at 37.0° C. in a humidified incubator. 2×10^5 LNCaP cells/well were seeded in a 24-well plate the day before experiment. 7.4 KBq (200 nCi) of ^177Lu-labeled compound was added into each well, and then incubated in 37° C., 5% CO2 incubator for varying durations. At each time point, the supernatant, cell membrane and intracellular fractions were collected. The cell membrane fraction was recovered by incubating cells with buffer containing 50 mM glycine and 100 mM NaCl, pH 2.7 for 10 minutes at 37° C., while the intracellular fraction was recovered from cells treated with 1M NaOH. Activity of ^177Lu-labelled compound in every component was detected by gamma counter.

[1] = biological target: T1, recombinant human PSMA (rhPSMA) (Homo sapiens, UniProt Q04609); experiment: Naaladase assay (fluorescence-based Naaladase activity inhibition); assay type: biochemical; settings: rhPSMA 0.4 μg/mL, substrate N-Acetyl-Asp-Glu 40 μM, 37° C. one hour
T1 construct: purchased Sino Biological
T1 sequence (Q04609 whole entry): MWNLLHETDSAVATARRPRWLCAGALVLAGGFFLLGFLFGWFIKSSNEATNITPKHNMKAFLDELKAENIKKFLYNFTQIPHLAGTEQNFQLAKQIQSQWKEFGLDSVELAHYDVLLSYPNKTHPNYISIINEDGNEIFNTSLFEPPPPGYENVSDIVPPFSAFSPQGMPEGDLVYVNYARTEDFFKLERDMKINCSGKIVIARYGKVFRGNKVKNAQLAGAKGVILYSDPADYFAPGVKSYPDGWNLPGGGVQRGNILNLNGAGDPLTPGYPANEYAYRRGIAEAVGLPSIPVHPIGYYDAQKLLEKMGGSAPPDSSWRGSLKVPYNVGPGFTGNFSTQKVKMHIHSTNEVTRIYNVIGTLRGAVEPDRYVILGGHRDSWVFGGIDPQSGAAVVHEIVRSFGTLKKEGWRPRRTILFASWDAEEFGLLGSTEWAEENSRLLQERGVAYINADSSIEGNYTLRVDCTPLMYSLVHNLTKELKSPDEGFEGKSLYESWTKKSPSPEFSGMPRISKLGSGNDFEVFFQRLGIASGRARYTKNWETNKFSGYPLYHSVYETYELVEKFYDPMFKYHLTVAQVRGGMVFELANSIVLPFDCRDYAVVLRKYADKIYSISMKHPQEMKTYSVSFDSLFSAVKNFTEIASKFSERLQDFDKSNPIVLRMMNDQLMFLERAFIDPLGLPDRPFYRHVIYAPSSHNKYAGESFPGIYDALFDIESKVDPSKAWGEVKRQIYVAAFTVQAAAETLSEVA
Experimental: Naaladase activity inhibition was determined using a fluorescence-based assay. Briefly, the solution containing the substrate N-Acetyl-Asp-Glu (Sigma-Aldrich) at 40 μM and the compound at concentrations from 0.15 nM to 1000 nM was mixed at equal volume with recombinant human PSMA (rhPSMA, Sino Biological) at 0.4 μg/mL, in assay buffer (50 mM HEPES, 100 mM NaCl, pH 7.5). The enzymatic reaction was proceeded by incubation at 37° C. for one hour and then stopped by heating at 95° C. for 5 minutes. A solution of 15 mM ortho-phthaldialdehyde (Sigma-Aldrich) was added to all vials and incubated for 10 min at ambient temperature. The reaction solutions were loaded onto a 96-well flat clear bottom black microplates (Corning) and read at excitation and emission wavelengths of 330 and 450 nm, respectively, using a microplate reader (Tecan). The data were analyzed by a one-site total binding regression algorithm of GraphPad Prism (GraphPad Software).

Compound | Membrane (%) (LNCaP cells; 1 hr) | Membrane (%) (LNCaP cells; 4 hr) | Membrane (%) (LNCaP cells; 24 hr) | Intracellular (%) (LNCaP cells; 1 hr) | Intracellular (%) (LNCaP cells; 4 hr) | Intracellular (%) (LNCaP cells; 24 hr) | IC50 [1] [nM]
O=C(O)CCC[C@H](NC(=O)N[C@@H](CCCCNC(=O)[C@H](Cc1c2ccccc2cc2ccccc12)Nc1c(Nc2ccc3c(c2)CN(C(=O)CN2CCN(CC(=O)O)CCN(CC(=O)O)CCN(CC(=O)O)CC2)CC3)c(=O)c1=O)C(=O)O)C(=O)O [E13] | 8.3 | 13.8 | 7.1 | 6.9 | 23.0 | 43.3 | 1.7
O=C(O)CN1CCN(CC(=O)O)CCN(Cc2nnc([C@H]3CC[C@H](Nc4c(N[C@@H](Cc5c6ccccc6cc6ccccc56)C(=O)NCCCC[C@H](NC(=O)N[C@@H](CNC(=O)C(=O)O)C(=O)O)C(=O)O)c(=O)c4=O)CC3)o2)CCN(CC(=O)O)CC1 [E10] | 7.1 | 10.5 | 11.0 | 16.9 | 50.2 | 76.7 | 1.7
O=C(O)CN1CCN(CC(=O)O)CCN(CC(=O)N[C@H]2CC[C@H](Nc3c(N[C@@H](Cc4c5ccccc5cc5ccccc45)C(=O)NCCCC[C@H](NC(=O)N[C@@H](CNC(=O)C(=O)O)C(=O)O)C(=O)O)c(=O)c3=O)CC2)CCN(CC(=O)O)CC1 [E12] | 11.1 | 18.0 | 12.7 | 7.3 | 24.3 | 41.4 | 0.9
O=C(O)CC[C@H](NC(=O)N[C@@H](CCCCNC(=O)[C@H](Cc1ccc2ccccc2c1)Nc1c(NC23CCC(CNC(=O)CN4CCN(CC(=O)O)CCN(CC(=O)O)CCN(CC(=O)O)CC4)(CC2)CC3)c(=O)c1=O)C(=O)O)C(=O)O [E1, (((S)-1-carboxy-5-((S)-2-((3,4-dioxo-2-((4-((2-(4,7,10-tris(carboxymethyl)-1,4,7,10-tetraazacyclododecan-1-yl)acetamido)methyl)bicyclo[2.2.2]octan-1-yl)amino)cyclobut-1-en-1-yl)amino)-3-(naphthalen-2-yl)propanamido)pentyl)carbamoyl)-L-glutamic acid] | 3.4 | 5.6 | 7.1 | 3.0 | 9.9 | 24.8 | 3.3
O=C(O)CN1CCN(CC(=O)O)CCN(CC(=O)NC23CCC(Nc4c(N[C@@H](Cc5ccc6ccccc6c5)C(=O)NCCCC[C@H](NC(=O)N[C@@H](CNC(=O)C(=O)O)C(=O)O)C(=O)O)c(=O)c4=O)(CC2)CC3)CCN(CC(=O)O)CC1 [E21, (4S,8S,15S)-15-((3,4-dioxo-2-((4-(2-(4,7,10-tris(carboxymethyl)-1,4,7,10-tetraazacyclododecan-1-yl)acetamido)bicyclo[2.2.2]octan-1-yl)amino)cyclobut-1-en-1-yl)amino)-16-(naphthalen-2-yl)-1,6,14-trioxo-2,5,7,13-tetraazahexadecane-1,4,8-tricarboxylic acid] |  |  |  |  |  |  | 1.5
O=C(O)CC[C@H](NC(=O)N[C@@H](CCCCNC(=O)C(Cc1ccc2ccccc2c1)Nc1nnc(C23CCC(CNC(=O)CN4CCN(CC(=O)O)CCN(CC(=O)O)CCN(CC(=O)O)CC4)(CC2)CC3)o1)C(=O)O)C(=O)O (single isomer, unassigned) [E17] |  |  |  |  |  |  | 3.5
NC(=O)CN1CCN(CC(=O)O)CCN(Cc2nnc(C34CCC(Nc5c(N[C@@H](Cc6c7ccccc7cc7ccccc67)C(=O)NCCCC[C@H](NC(=O)N[C@@H](CCCC(=O)O)C(=O)O)C(=O)O)c(=O)c5=O)(CC3)CC4)o2)CCN(CC(=O)O)CC1 [E20] |  |  |  |  |  |  | 1.8
O=C(O)CCC[C@H](NC(=O)N[C@@H](CCNC(=O)[C@H](Cc1c2ccccc2cc2ccccc12)NC(=O)[C@H]1CC[C@H](CNC(=O)CN2CCN(CC(=O)O)CCN(CC(=O)O)CCN(CC(=O)O)CC2)CC1)C(=O)O)C(=O)O [HTK03149, reference compound] | 2.9 | 3.8 | 5.7 | 2.8 | 7.4 | 19.3 | 1.6
COc1nc(N[C@@H](Cc2ccc3ccccc3c2)C(=O)NCCCC[C@H](NC(=O)N[C@@H](CCC(=O)O)C(=O)O)C(=O)O)cc(NC23CCC(NC(=O)CN4CCN(CC(=O)O)CCN(CC(=O)O)CCN(CC(=O)O)CC4)(CC2)CC3)n1 [E25] |  |  |  |  |  |  | 23.1
O=C(O)CN1CCN(CC(=O)O)CCN(CC(=O)NC23CCC(Nc4nnc(N[C@@H](Cc5c6ccccc6cc6ccccc56)C(=O)NCCCC[C@H](NC(=O)N[C@@H](CNC(=O)C(=O)O)C(=O)O)C(=O)O)s4)(CC2)CC3)CCN(CC(=O)O)CC1 [E26] |  |  |  |  |  |  | 9.5
O=C(O)CN1CCN(CC(=O)O)CCN(CC(=O)NCC23CCC(Nc4c(N[C@@H](Cc5c6ccccc6cc6ccccc56)C(=O)NCCCC[C@H](NC(=O)N[C@@H](CNC(=O)C(=O)O)C(=O)O)C(=O)O)c(=O)c4=O)(CC2)CC3)CCN(CC(=O)O)CC1 [E3, (4S,8S,15S)-16-(anthracen-9-yl)-15-((3,4-dioxo-2-((4-((2-(4,7,10-tris(carboxymethyl)-1,4,7,10-tetraazacyclododecan-1-yl)acetamido)methyl)bicyclo[2.2.2]octan-1-yl)amino)cyclobut-1-en-1-yl)amino)-1,6,14-trioxo-2,5,7,13-tetraazahexadecane-1,4,8-tricarboxylic acid] | 4.0 | 6.8 | 8.8 | 14.7 | 44.2 | 73.3 | 1.2
O=C(O)CC[C@H](NC(=O)N[C@@H](CCCCNC(=O)[C@H](Cc1ccc2ccccc2c1)Nc1c(Nc2ccc3c(c2)CCN(C(=O)CN2CCN(CC(=O)O)CCN(CC(=O)O)CCN(CC(=O)O)CC2)C3)c(=O)c1=O)C(=O)O)C(=O)O [E5] |  |  |  |  |  |  | 3
O=C(O)CN1CCN(CC(=O)O)CCN(Cc2nnc(C34CCC(Nc5c(N[C@@H](Cc6c7ccccc7cc7ccccc67)C(=O)NCCCC[C@H](NC(=O)N[C@@H](CNC(=O)C(=O)O)C(=O)O)C(=O)O)c(=O)c5=O)(CC3)CC4)o2)CCN(CC(=O)O)CC1 [E9] | 5.0 | 9.7 | 10.1 | 12.4 | 40.4 | 72.0 | 1
O=C(O)CN1CCN(CC(=O)O)CCN(CC(=O)NC23CCC(Nc4cc(N[C@@H](Cc5c6ccccc6cc6ccccc56)C(=O)NCCCC[C@H](NC(=O)N[C@@H](CNC(=O)C(=O)O)C(=O)O)C(=O)O)ncn4)(CC2)CC3)CCN(CC(=O)O)CC1 [E22, (4S,8S,15S)-16-(anthracen-9-yl)-1,6,14-trioxo-15-((6-((4-(2-(4,7,10-tris(carboxymethyl)-1,4,7,10-tetraazacyclododecan-1-yl)acetamido)bicyclo[2.2.2]octan-1-yl)amino)pyrimidin-4-yl)amino)-2,5,7,13-tetraazahexadecane-1,4,8-tricarboxylic acid] |  |  |  |  |  |  | 4.9
O=C(O)CC[C@H](NC(=O)N[C@@H](CCCCNC(=O)[C@H](Cc1c2ccccc2cc2ccccc12)Nc1c(NC23CCC(NC(=O)CN4CCN(CC(=O)O)CCN(CC(=O)O)CCN(CC(=O)O)CC4)(CC2)CC3)c(=O)c1=O)C(=O)O)C(=O)O [E15] | 14.1 | 27.3 | 23.8 | 9.6 | 30.4 | 58.4 | 0.8
O=C(O)CC[C@H](NC(=O)N[C@@H](CCCCNC(=O)[C@H](Cc1ccc2ccccc2c1)NC(=O)[C@H]1CC[C@H](CNC(=O)CN2CCN(CC(=O)O)CCN(CC(=O)O)CCN(CC(=O)O)CC2)CC1)C(=O)O)C(=O)O [PSMA-617, reference compound] | 2.1 | 4.8 | 4.7 | 3.0 | 9.5 | 22.4 | 2.4
O=C(O)CC[C@H](NC(=O)N[C@@H](CCCCNC(=O)[C@H](Cc1ccc2ccccc2c1)Nc1nc(O)nc(NC23CCC(NC(=O)CN4CCN(CC(=O)O)CCN(CC(=O)O)CCN(CC(=O)O)CC4)(CC2)CC3)n1)C(=O)O)C(=O)O [E27] |  |  |  |  |  |  | 26.6
O=C(O)CC[C@H](NC(=O)N[C@@H](CCCCNC(=O)[C@H](Cc1ccc2ccccc2c1)Nc1cc(NC23CCC(NC(=O)CN4CCN(CC(=O)O)CCN(CC(=O)O)CCN(CC(=O)O)CC4)(CC2)CC3)ncn1)C(=O)O)C(=O)O [E24] |  |  |  |  |  |  | 8.6
